pKi: −log10 of the molar value.

Chain of Stromelysin (P08254 100-477): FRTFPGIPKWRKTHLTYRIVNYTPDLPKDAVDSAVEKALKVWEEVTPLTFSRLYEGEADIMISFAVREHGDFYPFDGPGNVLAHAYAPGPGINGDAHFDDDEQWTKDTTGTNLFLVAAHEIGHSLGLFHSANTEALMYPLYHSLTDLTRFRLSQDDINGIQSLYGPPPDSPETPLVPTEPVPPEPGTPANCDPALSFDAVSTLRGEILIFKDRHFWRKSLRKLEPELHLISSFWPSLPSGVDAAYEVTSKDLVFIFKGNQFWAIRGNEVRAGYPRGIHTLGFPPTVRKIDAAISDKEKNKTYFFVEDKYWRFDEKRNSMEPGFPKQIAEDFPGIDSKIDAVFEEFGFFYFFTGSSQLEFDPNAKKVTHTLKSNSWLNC

The target of this test is Stromelysin (Homo sapiens, UniProt P08254). As to the kind of experiment: Stromelysin inhibition, in vitro particle concentration fluorescence assay (TABLE 1, MMP Inhibition Constants). Type of test: biochemical. To be noted: fluorescein/biotin substrate, MMP buffer pH 7.5, room temperature, 15 min preincubation with enzyme, 1-3 h with substrate. Here is the method:
Inhibitory activity is evaluated in one or more of the MMP enzymes (stromelysin, gelatinase, and collagenase) in vitro using particle concentration fluorescence assay. An inhibitor binds to MMP enzymes which prevents the degradation of a substrate by stromelysin, gelatinase, or collagenase. The substrate has attached to it a fluorescein and a biotin moiety. The intact substrate then binds to an avidin-coated particle via the biotin moiety. Once the particle is washed and dried, a fluorescent signal is generated since the fluorescent group is attached to the particle. Without an inhibitor present, the substrate is degraded by MMP enzymes and the fluorescein group is removed, therefore, no fluorescent signal can be detected. Testing compounds are dissolved in DMSO to the desired concentration, then the solutions are diluted to 1:5 with MMP buffer (50 mM Tris-HCl, pH 7.5; 150 mM NaCl; 0.02% NaN3). Serial two-fold dilutions of each compound are prepared. A concentrated, activated enzyme solution is transferred into each plate of the testing compounds, and the mixture is incubated at room temperature for 15 minutes. Thawed MMP substrate is then added into all plates, and the plates are incubated in the dark for 1-3 hours at room temperature. At this point, the substrate mixture is mixed with 0.1% avidin-coated polystyrene particles. After 15 minutes, the fluorescence values are measured following filtration and washing of the beads. Ki values are then calculated.
Take `O=C(NCCC[C@H](NC(=O)OCc1ccccc1)C(=O)Nc1n[nH]c(=S)s1)OCc1ccccc1` [Example 31, (S)-[1-[[(4,5-dihydro-5-thioxo-1,3,4-thiadiazol-2-yl)amino]carbonyl]-1,4-butanediyl]bis carbamic acid bis(phenylmethyl) ester]: the pKi (usually −log10 of the Ki, conventionally taken in molar units) was 5.55.

Take `O=C(N[C@@H](CC1CCCCC1)C(=O)Nc1n[nH]c(=S)s1)OCc1ccccc1` [Example 11]: the pKi was 5.21.

Take `CC(C)(C)OC(=O)N[C@@H](Cc1ccc(NC(=O)OCc2ccccc2)cc1)C(=O)Nc1n[nH]c(=S)s1` [Example 25, (S)-[4-[3-[(4,5-dihydro-5-thioxo-1,3,4-thiadiazol-2-yl)amino]-2-[[(1,1-dimethylethoxy)carbonyl]amino]-3-oxopropyl]phenyl]carbamic acid phenylmethyl ester]: the negative logarithm of the Ki (pKi) was 5.61.

`O=C(NC(COCc1ccccc1)C(=O)Nc1n[nH]c(=S)s1)OCc1ccccc1` (centres unmarked) [Example 8, [2-[(4,5-dihydro-5-thioxo-1,3,4-thiadiazol-2-yl)amino]-2-oxo-1-[(phenylmethoxy)methyl]ethyl]carbamic acid phenylmethyl ester]: the negative logarithm of the Ki (pKi) was 5.09.

`O=C(CCc1ccccc1)NC(C(=O)Nc1n[nH]c(=S)s1)c1ccccc1` (centres unmarked) [Example 14, N-[2-[(4,5-dihydro-5-thioxo-1,3,4-thiadiazol-2-yl)amino]-2-oxo-1-phenylethyl]benzenepropanamide] gave a negative-log Ki (pKi) of 6.19.

Consider `O=C(CC(NC(=O)COCc1ccccc1)c1ccccc1)Nc1n[nH]c(=S)s1` (stereo not drawn) [Example 49, N-(4,5-dihydro-5-thioxo-1,3,4-thiadiazol-2-yl)-β-[(phenylmethoxyacetyl)amino]benzenepropanamide], for which the pKi is 6.08.

`CCCCC(NC(=O)OCc1ccccc1)C(=O)Nc1n[nH]c(=S)s1` (centres unmarked) [Example 5, [1-[[(4,5-dihydro-5-thioxo-1,3,4-thiadiazol-2-yl)amino]carbonyl]pentyl]carbamic acid phenylmethyl ester] gave a pKi of 5.62.

On to `CC(C)(C)OC(=O)NC(C(=O)Nc1n[nH]c(=S)s1)C(C)(C)/C=C/Cc1ccccc1` (centres unmarked) [Example 20, (E)-(1-(((4,5-dihydro-5-thioxo-1,3,4-thiadiazol-2-yl)amino)carbonyl)-2,2-dimethyl-5-phenyl-3-pentenyl)carbamic acid 1,1-dimethylethyl ester], for which the pKi was 5.51.

For `O=C(CC(NC(=O)OCc1ccccc1)c1ccccc1)Nc1nnc(S)s1` (centres unmarked) [Example 41, [3-[(4,5-dihydro-5-thioxo-1,3,4-thiadiazol-2-yl)amino]-3-oxo-1-phenylpropyl]carbamic acid phenylmethyl ester], the pKi was 6.40.

On to `O=C(CCCCc1ccccc1)NC(C(=O)Nc1n[nH]c(=S)s1)c1ccccc1` (centres unmarked) [Example 15, N-[2-[(4,5-dihydro-5-thioxo-1,3,4-thiadiazol-2-yl)amino]-2-oxo-1-phenylethyl]benzenepentanamide], for which the pKi is 5.86.

Take `O=C(NC(CSCc1ccccc1)C(=O)Nc1n[nH]c(=S)s1)OCc1ccccc1` (centres unmarked) [Example 9, [2-[(4,5-dihydro-5-thioxo-1,3,4-thiadiazol-2-yl)amino]-2-oxo-1-[[(phenylmethyl)thio]methyl]ethyl]carbamic acid phenylmethyl ester]: the pKi is 5.02.

In turn, `CCOC(=O)C(C(=O)Nc1n[nH]c(=S)s1)C(C)(C)C` (stereo not drawn) [Example 58, ethyl α-[[(4,5-dihydro-5-thioxo-1,3,4-thiadiazol-2-yl)amino]carbonyl]-3,3-dimethylbutanoate] had a pKi of 5.30.

For `O=C(CC(NC(=O)CCc1ccccc1)c1ccccc1)Nc1n[nH]c(=S)s1` (centres unmarked) [Example 44], the pKi is 6.16.

`O=C(C[C@@H](NC(=O)OCc1ccccc1)c1ccccc1)Nc1n[nH]c(=S)s1` [Example 52, (R)-[3-[(4,5-dihydro-5-thioxo-1,3,4-thiadiazol-2-yl)amino]-3-oxo-1-phenylpropyl]carbamic acid phenylmethyl ester] gave a pKi of 6.59.

Take `COCC(=O)NC(CC(=O)Nc1n[nH]c(=S)s1)c1ccccc1` (stereo not drawn) [Example 47, N-(4,5-dihydro-5-thioxo-1,3,4-thiadiazol-2-yl)-β-[(methoxyacetyl)amino]benzenepropanamide]: the negative-log Ki (pKi) is 5.87.

The compound `O=C(N[C@H]1CCCC[C@H]1C(=O)Nc1n[nH]c(=S)s1)OCC1c2ccccc2-c2ccccc21` [Example 53, (1S-cis-)-[2-[[(4,5-dihydro-5-thioxo-1,3,4-thiadiazol-2-yl)amino]carbonyl]cyclohexyl]carbamic acid 9H-fluoren-9-yl-methyl ester] showed a pKi of 4.82.

As to `O=C(CC(NC(=O)COc1ccccc1)c1ccccc1)Nc1n[nH]c(=S)s1` (stereo not drawn) [Example 48, N-(4,5-dihydro-5-thioxo-1,3,4-thiadiazol-2-yl)-β-[(phenoxyacetyl)amino]benzenepropanamide], the negative logarithm of the Ki (pKi) was 6.50.

The compound `O=C(N[C@H](C(=O)Nc1n[nH]c(=S)s1)C1CCCCC1)OCc1ccccc1` [Example 12, (S)-[1-(cyclohexyl)-2-[(4,5-dihydro-5-thioxo-1,3,4-thiadiazol-2-yl)amino]-2-oxoethyl]carbamic acid phenylmethyl ester] had a pKi of 6.08.

Compound `O=C(CC(NC(=O)OCC1c2ccccc2-c2ccccc21)c1ccccc1)Nc1n[nH]c(=S)s1` (centres unmarked) [Example 46, [3-[(4,5-dihydro-5-thioxo-1,3,4-thiadiazol-2-yl)amino]-3-oxo-1-phenylpropyl]carbamic acid 9H-fluoren-9-yl methyl ester] showed a negative-log Ki (pKi) of 6.36.

Regarding `CNC(=O)C(C(=O)Nc1n[nH]c(=S)s1)C(C)(C)C` (stereo not drawn) [Example 59, N-methyl-α-[[(4,5-dihydro-5-thioxo-1,3,4-thiadiazol-2-yl)amino]carbonyl]-3,3-dimethylbutanamide], the negative-log Ki (pKi) is 5.37.

For the compound `CC(C)(C)OC(=O)N[C@@H](Cc1c(F)c(F)c(F)c(F)c1F)C(=O)Nc1n[nH]c(=S)s1` [Example 28, (S)-[2-[(4,5-dihydro-5-thioxo-1,3,4-thiadiazol-2-yl)amino]-2-oxo-1-[(pentafluorophenyl)methyl]ethyl]carbamic acid 1,1-dimethylethyl ester], the pKi is 5.65.

`CCC(C)(C)C(NC(=O)OC(C)(C)C)C(=O)Nc1n[nH]c(=S)s1` (centres unmarked) [Example 23, (1-(((4,5-dihydro-5-thioxo-1,3,4-thiadiazol-2-yl)amino)carbonyl)-2,2-dimethylbutyl)carbamic acid 1,1-dimethylethyl ester] had a pKi of 5.67.

In turn, `CC(C)(C)[C@H](NC(=O)CCc1ccccc1)C(=O)Nc1n[nH]c(=S)s1` [Example 26, (S)-N-[1-[[(4,5-dihydro-5-thioxo-1,3,4-thiadiazol-2-yl)amino]carbonyl]-2,2-dimethylpropyl]benzenpropanamide] showed a pKi of 6.62.

In the case of `CCOC(=O)C(Cc1ccccc1)C(=O)Nc1n[nH]c(=S)s1` (stereo not drawn) [Example 57, ethyl α-[[(4,5-dihydro-5-thioxo-1,3,4-thiadiazol-2yl)amino]carbonyl]benzenepropanoate], the pKi was 5.39.

`CC[C@H](C)[C@H](NC(=O)OCC1c2ccccc2-c2ccccc21)C(=O)Nc1n[nH]c(=S)s1` [Example 4, [S-(R*,R*)]-[1-[[(4,5-dihydro-5-thioxo-1,3,4-thiadiazol-2-yl)amino]carbonyl]-2-methylbutyl]carbamic acid 9H-fluoren-9-yl-methyl ester] had a pKi of 6.02.

`O=C(C[C@H](NC(=O)OCc1ccccc1)c1ccccc1)Nc1n[nH]c(=S)s1` [Example 51, (S)-[3-[(4,5-dihydro-5-thioxo-1,3,4-thiadiazol-2-yl)amino]-3-oxo-1-phenylpropyl]carbamic acid phenylmethyl ester] showed a pKi of 5.82.

In turn, `C=CC(C)(C)C(NC(=O)OC(C)(C)C)C(=O)Nc1n[nH]c(=S)s1` (centres unmarked) [Example 22, (1-(((4,5-dihydro-5-thioxo-1,3,4-thiadiazol-2-yl)amino)carbonyl)-2,2-dimethyl-3-butenyl)carbamic acid 1,1-dimethylethyl ester] showed a negative-log Ki (pKi) of 5.45.

As for `CCC[C@H](NC(=O)OCc1ccccc1)C(=O)Nc1n[nH]c(=S)s1` [Example 7, (S)-[1-[[(4,5-dihydro-5-thioxo-1,3,4-thiadiazol-2-yl)amino]carbonyl]butyl]carbamic acid phenylmethyl ester], the negative-log Ki (pKi) was 5.64.

For `CC(C)(C)[C@H](NC(=O)OCC1c2ccccc2-c2ccccc21)C(=O)Nc1n[nH]c(=S)s1` [Example 37, (S)-[1-[[(4,5-dihydro-5-thioxo-1,3,4-thiadiazol-2-yl)amino]carbonyl]-2,2-dimethylpropyl]carbamic acid 9H-fluoren-9-yl-methyl ester], the pKi was 6.92.

For the origin of these results see patent publication US5830869A, “Thiadiazole amide MMP inhibitors” (priority 1997, dated 1998).
